Assay results published in patent US20210275415A1, “AN ANTIMICROBIAL COMPOSITION” (Conopco, Inc., d/b/a UNILEVER, priority 2017, published 2021).
Where two headings read alike, the source gives them in different places. Blank lines part the entries; values can stand above or below the compound they belong to.

What was measured:
Staphylococcus aureus = test: ΣFIC assay against Staphylococcus aureus (MIC by alamar blue, checkerboard); type: cell-based, S. aureus (ATCC 12600); details: for MIC: Staphylococcus aureus, 24 h, read-out: Minimum Inhibition Concentration (MIC); for interaction of the combination (synergy/additivity) in words: conclusion from Table 2
Experimental: Effect of sphingosine with triclosan as well as triclocarban was also tested. A brief description of the method is given below.
Methods: ΣFIC assay against Staphylococcus aureus
They are then incubated at 37° C. overnight (16 hours) with shaking. The overnight culture is diluted using TSB to 5*10^4 cell/ml.
Zinc pyrithione was serially diluted (2-fold) to prepare in a range of 0.5 to 500 ppm in the growth medium. The AML compound was serially diluted (2-fold) to prepare in a range of 16 to 1,000 ppm for sapienic acid, and palmitoleic acid; and 4 to 250 ppm for other AMLs in growth medium. Triclosan was serially diluted (2-fold) to prepare in a range of 0.2 to 200 ppm and triclocarban in a range of 2 to 2000 ppm in growth medium.
(§1) Binary combinations of ZPTO or triclosan/triclocarban and the AML compound were prepared in 96-well plate by mixing 20 μl of zinc pyrithione solution with 20 μl of AML compound. The solution in each well were further mixed with 160 μl of TSB and 20 μl of S. aureus. The final cell density in the testing plate is around 4*10^4 cell/ml, and the final concentration of actives in each well of the 96-well plate were shown below.
Then 20 μl of alamar blue (0.01%) was added into each well, and the plate was incubated at 37° C. for one day to observe the color change. Red color indicates microbial growth and the non-changing blue color indicates no growth.
(§2) The MIC is defined as the absolute lowest concentration of active that provides complete microbial growth inhibition as indicated by the blue color of alamar blue under the tested condition.
The differing behaviors of inhibitory antimicrobials in isolation and mixtures have been widely explored using the concept of the Fractional Concentration (FC) and Fractional Inhibitory Concentration (FIC). The parameter can be defined as follows: […]
(§3) These relationships can be expressed mathematically by summing the fractional MIC values for all the components present in the mixture to give the “fractional inhibition index”. There is no consistent approach in the academic or patent literature in defining precise limiting ΣFIC values that differentiate synergy from additivity or antagonism. In this study, we have adopted a liberal approach defining any binary mixture with ΣFIC<0.9 as showing evidence of synergistic behavior.

Malassezia furfur = test: ΣFIC assay against Malassezia furfur (MIC by alamar blue, checkerboard); type: cell-based, M. furfur (CBS 1878); details: M. furfur, Pityrosporum Broth, 32° C., lowest concentration giving complete growth inhibition (alamar blue stays blue), active alone; for MIC: Malassezia furfur, read-out: Minimum Inhibition Concentration (MIC)
Experimental: Synergistic interaction between ZPTO and the AML compounds was determined using the ΣFIC assay against Malassezia furfur. A brief description of the method is given below.
Method: ΣFIC assay against Malassezia furfur
They are then incubated at 32° C. for 48 hours with shaking. Then, 1 ml of the first broth culture is transferred into 9 ml of fresh PB and incubated at 32° C. for 48 hours with shaking. The final culture should contain 2 to 6×10^6 cells/ml. This is achieved by diluting using PB to 5*10^5 cell/ml.
as §1, with “ZPTO” for “ZPTO or triclosan/triclocarban”, “PB” for “TSB”, “M. furfur.” for “S. aureus.”, “5*10^4” for “4*10^4”
The plate was incubated at 32° C. for one day. Then 20 μl of alamar blue (0.01%) was added into each well with a further incubation for one day to observe the color change. Red color indicates microbial growth and the non-changing blue color indicates no growth.
as §2
The differing behaviour of inhibitory antimicrobials in isolation and mixtures have been widely explored using the concept of the Fractional Concentration (FC) and Fractional Inhibitory Concentration (FIC). The parameter can be defined as follows: […]
as §3

[1] = S. aureus, TSB, 37° C. one day, lowest concentration giving complete growth inhibition (alamar blue stays blue), active alone

Minimum Inhibition Concentration (MIC) (Staphylococcus aureus; [1]): 6.3 ppm
Minimum Inhibition Concentration (MIC) (Malassezia furfur): 1000 ppm
Compound: CCCCCCCCCCCCCCC[C@@H](O)[C@@H](N)CO [dihydrosphingosine]

MIC (Malassezia furfur): 5000 µg/mL
Compound: CCCCCC/C=C\CCCCCCCC(=O)O [palmitoleic acid]

MIC (Malassezia furfur): 125 µg/mL
Compound: CCCCCCCCCCCCCC[C@@H](O)[C@@H](O)[C@@H](N)CO [phytosphingosine]

Minimum Inhibition Concentration (MIC) (Staphylococcus aureus; [1]): 25 ppm
Compound: CCCCCCCCC/C=C\CCCCC(=O)O [sapienic acid]

MIC (Staphylococcus aureus; [1]): 3.1 µg/mL
MIC (Malassezia furfur): 1000 µg/mL
Compound: CCCCCCCCCCCCC/C=C/[C@@H](O)[C@@H](N)CO [sphingosine]

MIC (Staphylococcus aureus; [1]): 3.13 µg/mL
Compound: O=C(Nc1ccc(Cl)cc1)Nc1ccc(Cl)c(Cl)c1 [triclocarban]
interaction of the combination (synergy/additivity) in words (Staphylococcus aureus; S. aureus): additive but not synergistic effect

Compound: Oc1cc(Cl)ccc1Oc1ccc(Cl)cc1Cl [triclosan]
interaction of the combination (synergy/additivity) in words (Staphylococcus aureus; S. aureus): additive but not synergistic effect
MIC (Staphylococcus aureus): 0.16 µg/mL
